Article PMC9596378, “Discovery and molecular basis of subtype-selective cyclophilin inhibitors” (Nature Chemical Biology, 2022)
“And” between values parts separate entries of the source, which are not always exact repeats. Identical values can stand only once. Like-named read-outs stand apart in the source and are kept apart here.

What was measured:
Assay in all cases: Chymotrypsin coupled prolyl-isomerase assay
[1] = molecular target: CypD (Homo sapiens, UniProt P30405); settings: for CypD prolyl-isomerase assay raw dose-response value: Fig. 3b source data, replicates
[2] = molecular target: T1, PPWD1 (Homo sapiens, UniProt Q96BP3); type: biochemical; settings: for PPWD1 prolyl-isomerase assay raw dose-response value: Fig. 3b source data, replicates
T1 construct: PPWD1 (UniProtKB Entry Q96BP3: residues 473–646); host or cells: E. coli BL21(DE3)
T1 sequence (Q96BP3 473-646): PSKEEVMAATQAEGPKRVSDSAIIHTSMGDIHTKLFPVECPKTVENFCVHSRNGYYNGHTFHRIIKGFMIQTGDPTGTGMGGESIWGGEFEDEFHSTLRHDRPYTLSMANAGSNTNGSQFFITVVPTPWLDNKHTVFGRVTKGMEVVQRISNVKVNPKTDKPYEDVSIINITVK

[3] = molecular target: T2, PPIL1 (Homo sapiens, UniProt Q9Y3C6); type: biochemical; settings: for PPIL1 prolyl-isomerase assay raw dose-response value: Fig. 3b source data, replicates
T2 construct: PPIL1 (UniProtKB Entry Q9Y3C6: residues 1–166); made in house; host or cells: E. coli BL21(DE3)
T2 sequence (Q9Y3C6 1-166): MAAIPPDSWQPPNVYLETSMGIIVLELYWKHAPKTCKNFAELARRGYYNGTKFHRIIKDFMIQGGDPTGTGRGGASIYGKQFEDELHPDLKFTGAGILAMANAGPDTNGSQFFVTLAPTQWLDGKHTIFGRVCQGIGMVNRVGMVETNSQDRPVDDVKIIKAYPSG

[4] = molecular target: T3, CypG (Homo sapiens, UniProt Q13427); type: biochemical; settings: for CypG prolyl-isomerase assay raw dose-response value: Fig. 3b source data, replicates
T3 construct: PPIG (UniProtKB Entry Q13427: residues 1–179); His6 with thrombin site (pET28a LIC leader) (N); host or cells: E. coli BL21(DE3)
T3 sequence (Q13427 1-179): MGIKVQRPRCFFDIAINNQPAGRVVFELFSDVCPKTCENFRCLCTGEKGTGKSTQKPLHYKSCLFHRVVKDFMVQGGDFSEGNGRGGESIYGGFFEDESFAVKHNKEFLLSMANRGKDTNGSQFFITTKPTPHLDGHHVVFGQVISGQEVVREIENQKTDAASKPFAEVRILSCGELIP
Method in brief: (§1)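 Chymotrypsin-coupled cis–trans isomerization of Suc-AAPF-AMC (5 µM) catalysed by 5 nM cyclophilin, run cold (2–3 °C) at pH 7.3 with 5 min compound preincubation.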

[5] = molecular target: T4, CypH (Homo sapiens, UniProt O43447); type: biochemical; settings: for CypH prolyl-isomerase assay raw dose-response value: Fig. 3b source data, replicates
T4 construct: PPIH (UniProtKB Entry O43447: residues 1–177); His6 with TEV site (2BT vector leader) (N); made in house; host or cells: E. coli BL21(DE3)
Method in brief: as §1

[6] = molecular target: T5, CypA (Homo sapiens, UniProt P62937); type: biochemical; settings: for CypA prolyl-isomerase assay raw dose-response value: Fig. 3b source data, replicates
T5 construct: PPIA (UniProtKB Entry P62937: residues 1–165); made in house; host or cells: E. coli BL21(DE3)
Method in brief: as §1

Sequence of CypD (P30405 45-207): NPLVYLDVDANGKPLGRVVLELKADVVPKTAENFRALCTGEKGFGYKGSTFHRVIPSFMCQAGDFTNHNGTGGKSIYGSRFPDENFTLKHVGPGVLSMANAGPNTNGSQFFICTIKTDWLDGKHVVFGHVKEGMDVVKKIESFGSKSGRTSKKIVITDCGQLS
T5 sequence (P62937 whole entry, the tested form may be a part): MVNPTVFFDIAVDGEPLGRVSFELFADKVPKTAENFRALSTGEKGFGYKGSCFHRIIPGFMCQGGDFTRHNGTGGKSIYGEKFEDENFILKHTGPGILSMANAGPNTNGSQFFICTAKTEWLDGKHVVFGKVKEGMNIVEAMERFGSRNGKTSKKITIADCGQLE
T4 sequence (O43447 whole entry, the tested form may be a part): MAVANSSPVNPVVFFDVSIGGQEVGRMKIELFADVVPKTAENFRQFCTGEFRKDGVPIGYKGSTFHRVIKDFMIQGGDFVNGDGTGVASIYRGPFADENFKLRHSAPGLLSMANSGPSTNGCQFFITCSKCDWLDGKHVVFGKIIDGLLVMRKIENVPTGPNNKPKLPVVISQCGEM

With NCCOCCNC(=O)[C@@H]1CCNC(=O)/C=C/C(=O)N2CCC[C@](Cc3ccccc3)(C2)C(=O)N[C@@H](Cc2ccc(-c3ccc(CCC(=O)O)cc3)cc2)C(=O)NCc2ccccc2CC(=O)N1 [Compound B23] the IC50 [1] was 0.0078 µM, the “CypD prolyl-isomerase assay raw dose-response value” ([1]; Dose 0.000457247 µM) was 0.08239 and 0.08493 and 0.09684 and the “CypD prolyl-isomerase assay raw dose-response value” ([1]; Dose 0.00137174 µM) was 0.07973 and 0.07546 and 0.07833. For the same compound, the “CypD prolyl-isomerase assay raw dose-response value” ([1]; Dose 0.00411523 µM) was 0.06213 and 0.06183 and 0.0629, the “CypD prolyl-isomerase assay raw dose-response value” ([1]; Dose 0.0123457 µM) was 0.03857 and 0.03915 and 0.03469 and the “CypD prolyl-isomerase assay raw dose-response value” ([1]; Dose 0.037037 µM) was 0.02379 and 0.02491 and 0.0225. The “CypD prolyl-isomerase assay raw dose-response value” ([1]; Dose 0.111111 µM) was 0.01572 and 0.01536 and 0.01393, the “CypD prolyl-isomerase assay raw dose-response value” ([1]; Dose 0.333333 µM) was 0.01408 and 0.01283 and 0.01168 and the “CypD prolyl-isomerase assay raw dose-response value” ([1]; Dose 1 µM) was 0.01156 and 0.01128 and 0.01193. For the same compound, the “selectivity for CypD over CypE and CypB” value ([1]; prolyl-isomerase IC50) was ~ 3 fold, the “PPWD1 prolyl-isomerase assay raw dose-response value” ([2]; Dose 0.0201875 µM) was 0.05033 and 0.05427 and 0.05661 and the “PPWD1 prolyl-isomerase assay raw dose-response value” ([2]; Dose 0.0605624 µM) was 0.05286 and 0.05252 and 0.05358. For the same compound, the “PPWD1 prolyl-isomerase assay raw dose-response value” ([2]; Dose 0.181687 µM) was 0.05234 and 0.04225 and 0.05023, the “PPWD1 prolyl-isomerase assay raw dose-response value” ([2]; Dose 0.545062 µM) was 0.05186 and 0.04473 and 0.04345 and the “PPWD1 prolyl-isomerase assay raw dose-response value” ([2]; Dose 1.63519 µM) was 0.04986 and 0.04682 and 0.05314. The “PPWD1 prolyl-isomerase assay raw dose-response value” ([2]; Dose 4.90556 µM) was 0.03903 and 0.03772 and 0.04075, the “PPWD1 prolyl-isomerase assay raw dose-response value” ([2]; Dose 14.7167 µM) was 0.03486 and 0.03306 and 0.03245 and the “PPWD1 prolyl-isomerase assay raw dose-response value” ([2]; Dose 44.15 µM) was 0.02892 and 0.02371 and 0.02381. The IC50 ([2]; wild-type PPWD1, read-out: Wild-Type Cyclophilin Prolyl Isomerase Inhibition IC50 Values, PPWD1) was 11 µM, the “PPIL1 prolyl-isomerase assay raw dose-response value” ([3]; Dose 0.0201875 µM) was 0.07231 and 0.05967 and 0.06308 and the “PPIL1 prolyl-isomerase assay raw dose-response value” ([3]; Dose 0.0605624 µM) was 0.05364 and 0.0572 and 0.05937. For the same compound, the “PPIL1 prolyl-isomerase assay raw dose-response value” ([3]; Dose 0.181687 µM) was 0.04207 and 0.04374 and 0.05902, the “PPIL1 prolyl-isomerase assay raw dose-response value” ([3]; Dose 0.545062 µM) was 0.02667 and 0.03161 and 0.02807 and the “PPIL1 prolyl-isomerase assay raw dose-response value” ([3]; Dose 1.63519 µM) was 0.01818 and 0.02247 and 0.01913. The “PPIL1 prolyl-isomerase assay raw dose-response value” ([3]; Dose 4.90556 µM) was 0.01354 and 0.01399 and 0.01299, the “PPIL1 prolyl-isomerase assay raw dose-response value” ([3]; Dose 14.7167 µM) was 0.01244 and 0.01258 and 0.01177 and the “PPIL1 prolyl-isomerase assay raw dose-response value” ([3]; Dose 44.15 µM) was 0.01521 and 0.01086 and 0.01169. For the same compound, the IC50 ([3]; wild-type PPIL1, read-out: Wild-Type Cyclophilin Prolyl Isomerase Inhibition IC50 Values, PPIL1) was 0.13 µM, the “CypG prolyl-isomerase assay raw dose-response value” ([4]; Dose 0.0201875 µM) was 0.05557 and 0.07057 and 0.08284 and the “CypG prolyl-isomerase assay raw dose-response value” ([4]; Dose 0.0605624 µM) was 0.06342 and 0.06664 and 0.0785. For the same compound, the “CypG prolyl-isomerase assay raw dose-response value” ([4]; Dose 0.181687 µM) was 0.06147 and 0.06545 and 0.06938, the “CypG prolyl-isomerase assay raw dose-response value” ([4]; Dose 0.545062 µM) was 0.06208 and 0.06061 and 0.06273 and the “CypG prolyl-isomerase assay raw dose-response value” ([4]; Dose 1.63519 µM) was 0.04663 and 0.04276 and 0.05928. The “CypG prolyl-isomerase assay raw dose-response value” ([4]; Dose 4.90556 µM) was 0.04439 and 0.04343 and 0.05116, the “CypG prolyl-isomerase assay raw dose-response value” ([4]; Dose 14.7167 µM) was 0.03836 and 0.03799 and 0.04109 and the “CypG prolyl-isomerase assay raw dose-response value” ([4]; Dose 44.15 µM) was 0.02708 and 0.02241 and 0.02205. The IC50 ([4]; wild-type CypG, read-out: Wild-Type Cyclophilin Prolyl Isomerase Inhibition IC50 Values, CypG) was 5 µM, the “CypH prolyl-isomerase assay raw dose-response value” ([5]; Dose 0.0201875 µM) was 0.05491 and 0.05835 and 0.05541 and the “CypH prolyl-isomerase assay raw dose-response value” ([5]; Dose 0.0605624 µM) was 0.04538 and 0.05559 and 0.06086. For the same compound, the “CypH prolyl-isomerase assay raw dose-response value” ([5]; Dose 0.181687 µM) was 0.05774 and 0.04961 and 0.05822, the “CypH prolyl-isomerase assay raw dose-response value” ([5]; Dose 0.545062 µM) was 0.05324 and 0.05013 and 0.05095 and the “CypH prolyl-isomerase assay raw dose-response value” ([5]; Dose 1.63519 µM) was 0.05541 and 0.05439 and 0.06013. The “CypH prolyl-isomerase assay raw dose-response value” ([5]; Dose 4.90556 µM) was 0.05126 and 0.04228 and 0.05669, the “CypH prolyl-isomerase assay raw dose-response value” ([5]; Dose 14.7167 µM) was 0.04371 and 0.04194 and 0.04598 and the “CypH prolyl-isomerase assay raw dose-response value” ([5]; Dose 44.15 µM) was 0.03624 and 0.03187 and 0.03195. It also gave an IC50 ([5]; prolyl-isomerase inhibition, 5 nM cyclophilin, read-out: IC50 CypH) of about 30 µM, an IC50 ([5]; wild-type CypH, read-out: Wild-Type Cyclophilin Prolyl Isomerase Inhibition IC50 Values, CypH) of 30 µM and an IC50 ([6]; CypA column within the mutant section (comparator for CypA E81S/K82R), read-out: Mutant Cyclophilin Prolyl Isomerase Inhibition IC50 Values, CypA) of 0.08 µM. The “CypA prolyl-isomerase assay raw dose-response value” ([6]; Dose 0.0201875 µM) was 0.09097 and 0.1013 and 0.1158, the “CypA prolyl-isomerase assay raw dose-response value” ([6]; Dose 0.0605624 µM) was 0.07524 and 0.06823 and 0.07786 and the “CypA prolyl-isomerase assay raw dose-response value” ([6]; Dose 0.181687 µM) was 0.04845 and 0.04593 and 0.054. For the same compound, the “CypA prolyl-isomerase assay raw dose-response value” ([6]; Dose 0.545062 µM) was 0.03092 and 0.02915 and 0.02773, the “CypA prolyl-isomerase assay raw dose-response value” ([6]; Dose 1.63519 µM) was 0.0188 and 0.01847 and 0.01826 and the “CypA prolyl-isomerase assay raw dose-response value” ([6]; Dose 4.90556 µM) was 0.01632 and 0.01475 and 0.01432. For the same compound, the “CypA prolyl-isomerase assay raw dose-response value” ([6]; Dose 14.7167 µM) was 0.01473 and 0.01273 and 0.01279, the “CypA prolyl-isomerase assay raw dose-response value” ([6]; Dose 44.15 µM) was 0.01511 and 0.01244 and 0.01258 and the IC50 ([6]; prolyl-isomerase inhibition, 5 nM cyclophilin, read-out: IC50 CypA) was 0.08 ± 0.01 µM. For the same compound, the IC50 ([6]; prolyl-isomerase inhibition, read-out: IC50 CypA) was 0.08 µM and the IC50 ([6]; wild-type CypA, read-out: Wild-Type Cyclophilin Prolyl Isomerase Inhibition IC50 Values, CypA) was 0.08 µM.
